Laboratory results from patent US8110703B2, “Retinoid derivative and pharmaceutical composition and use thereof” (Anhui Medical University, priority 2008, dated 2012).
Marks after values point to notes of the source that are not given here.

What was measured:
Type in all cases: cell-based
[1] = system: A549 lung cancer cells; assay: MTT cell growth and proliferation experiment, A549; parameters: key to Inhibition Rate: (control OD570 − test OD570)/control OD570, as fraction
Protocol: 1.1 Reagents 12 retinoic acid derivatives with the final concentrations of 1 ug/ml, 5 ug/ml and 10 ug/ml are synthesized by the Pharmaceutical College of Anhui Medical University using DMSO and anhydrous ethanol, separately packaged for storage at −20° C. and kept out of the light when used, and the final concentration of DMSO is less than 0.1%. MTT is purchased from Sigma Corp. The Coulter DNA detection kit is presented by the Central Lab of Anhui Provincial Hospital. AFP and γ-GT are provided by the Clinical Lab of No. 105 Hospital of PLA. Apoptosis-Hoechst staining kit is purchased from Beyotime Company.
1.2 Cell Culture A549, and HpeG2 cells are stored by our lab. Cell growth condition: DMEM (from GIBICO Company) culture solution is added with 10% of calf serum (purchased from the Hangzhou Sijiqing Biological Engineering Material Co., Ltd.) to culture in a cell culture incubator (37° C., 5% CO2) with saturated humidity.
1.3 Cell Growth and Proliferation Experiments MTT process is used. Cells in the logarithmic phase are picked and seeded on a 96-hole culture board with a cell concentration of 5×10^7/L. Each hole of the board is 200 ul. The next day after the adherence, the original solution is discarded, and the culture solution is added. The cells are divided into 1 ug/ml retinoic acid derivative groups, 5 ug/ml retinoic acid derivative groups, 10 ug/ml retinoic acid derivative groups, blank control groups, cell control groups, solvent control groups (1‰ DMSO and anhydrous ethanol) (17 in total) according to the concentrations thereof, incubated for 3d, added with MTT (5 g/L) of 20 ul/hole for incubation at 37° C. for 4 h. The original solution is carefully discarded and dried, and DMSO of 20 ul/hole is added to dissolve crystals, followed by vibrating for 10 min and determining the OD value at 570 nm. Each concentration is corresponding to 5 holes, and each group calculates the average of 3 experiments to calculate the inhibition rate to the cell growth according to the optical density (OD) average of each hole in each group and the following equation: inhibition rate %=(control hole OD570−experimental hole OD570)/control hole OD5700*100%. The process above is repeated for three times. The second experiment takes the maximum concentration (10 […]) for culture respectively for 1, 2, 3 and 7 days and repeat for three times.

[2] = system: A549 cells; assay: Cell cycle and apoptosis by flow cytometry, A549; conditions: A549, 10 μg/ml, 3 days
Protocol: 1.4 Detection of Cell Cycle and Apoptosis by Flow Cytometry A549 cells in the logarithmic phase are collected, regulated with the concentrations thereof to 8×10^7/L, inoculated in a 6-hole board, cultured in an incubator (37° C. and 5% CO2). After the cells are adhered, the culture solution is discarded, and a culture solution having drugs with the corresponding concentrations is added and divided into 10 μg/ml drug groups, 10 μg/ml fenretinide groups, cell control groups, solvent control groups (1‰ DMSO and anhydrous ethanol) (11 in total). After 3 days, each group of cells is normally digested, collected, blown into single cell suspension, washed by cold PBS twice, and re-suspend by 10 μl PBS. Fixing and member breaking agents and a PI staining solution are added according to the Coulter DNA detection kit and reacted with one another at the room temperature and out of light for 30 min for machine detection. Each sample detects 10000 cells and repeats for three times, and the data are analyzed by Analysis software for the ratio during the G0-G1, S and G2-M periods and the ratio of apoptotic cells.

[3] = system: A549 cells; assay: Differentiation index: CEA secretory volume of A549 cells; conditions: A549 culture supernatant, 10 ug/ml, 3 d
Protocol: 1.6 Detection of Differentiation Index The cultured A549 cells are randomly divided into 6 10 μg/ml drug groups, cell control groups, solvent control groups (DMSO and ethanol) and 10 μg/ml fenretinide control groups (11 in total). The control groups and drug groups are cultured for 3 days to collect respective 3 tubes of cell culture solutions which are centrifugated at a speed of 4000 r/min for 5 min to take the supernatant and detect the CEA content of the kit by using enzyme kinetics and CEA detection.

[4] = system: NB4 cells; assay: Cell cycle analysis by flow cytometer, NB4; parameters: S %: dose or concentration left out as unconfirmed; conditions: 72 h
Protocol: (§1) Retinoic acid derivatives and fenretinide are prepared as a storage solution of 10 mg/mL by anhydrous ethanol and stored at […] and kept out of light.
(§2) NB4 cells and K562 cells are inoculated with an initial concentration of 2*10^5/ml in the RPMI1640 culture solution having 10% of calf serum (FBS), 100 u/ml of penicillin, 100 Lg/ml of streptomycin and 2 mmol/L of glutamine for suspension culture (37° C., 5% CO2). Change the solution every 2-3 days.
(§3) For the cells above acted by the retinoic acid derivatives and fenretinide ([…]) for 72 h, about 10^6 of them are collected, washed by PBS twice, fixed by 70% of cold ethanol over 24 h, washed by PBS twice, added with 5 ug/ml of propidium iodide for staining and detected by a flow cytometer from which the data are analyzed and processed by the multi-cycle software.

[5] = system: HepG2 cells; assay: Cell cycle and apoptosis by flow cytometry, HepG2; conditions: HepG2, flow cytometry
[6] = system: K562 cells; assay: Cell cycle analysis by flow cytometer, K562; parameters: S %: dose or concentration left out as unconfirmed; conditions: 72 h
Protocol: as §1, §2, §3

CC1=C(/C=C/C(C)=C/C=C/C(C)=C/C(=O)Oc2ccccc2C(F)(F)F)C(C)(C)CCC1 [Example 2a-03, (2-trifluoromethylphenyl)-(all-trans)-3,7-dimethyl-9-(2,6,6-trimethyl-1-cyclohexen-1-yl)-2,4,6,8-nonatetraenoate]
OD Value (x ± s) ([1]; A549, MTT OD 570 nm, 1 ug/ml, 3 d, solvent ethanol): 1.639 ± 0.115 | OD Value (x ± s) ([1]; A549, MTT OD 570 nm, 5 ug/ml, 3 d, solvent ethanol): 1.555 ± 0.162 | OD Value (x ± s) ([1]; A549, MTT OD 570 nm, 10 ug/ml, 3 d, solvent ethanol): 1.382 ± 0.133 | OD Value (x ± s) ([1]; A549, MTT time gradient, 10 ug/ml, 1 d): 0.902 ± 0.055 | Inhibition Rate ([1]; A549, MTT time gradient, 10 ug/ml, 1 d, fraction): 0.016 | OD Value (x ± s) ([1]; A549, MTT time gradient, 10 ug/ml, 2 d): 1.066 ± 0.015 | Inhibition Rate ([1]; A549, MTT time gradient, 10 ug/ml, 2 d, fraction): 0.271 | OD Value (x ± s) ([1]; A549, MTT time gradient, 10 ug/ml, 3 d): 0.635 ± 0.033 | Inhibition Rate ([1]; A549, MTT time gradient, 10 ug/ml, 3 d, fraction): 0.315 | OD Value (x ± s) ([1]; A549, MTT time gradient, 10 ug/ml, 7 d): 1.393 ± 0.043 | Inhibition Rate ([1]; A549, MTT time gradient, 10 ug/ml, 7 d, fraction): 0.328 | Inhibition Rate ([1]; A549, MTT, 1 ug/ml, 3 d, solvent ethanol, given as fraction): 0.122 | Inhibition Rate ([1]; A549, MTT, 5 ug/ml, 3 d, solvent ethanol, given as fraction): 0.167 | Inhibition Rate ([1]; A549, MTT, 10 ug/ml, 3 d, solvent ethanol, given as fraction): 0.260 | Apoptosis Rate (%) ([2]; PI flow cytometry): 28.9% | G0-G1 (%) ([2]; PI flow cytometry): 45.7% | G2-M (%) ([2]; PI flow cytometry): 1.01% | S % ([2]; PI flow cytometry): 25.8% | CEA ([3]; ethanol): 3.9 µg/L | G1 % [4]: 65.72% | G2 % [4]: 5.54% | S % [4]: 28.74% | Apoptosis Rate (%) [5]: 16.3* % | G0-G1 (%) [5]: 57.3% | G2-M (%) [5]: 3.40% | S % [5]: 25.5% | G1 % [6]: 45.1% | G2 % [6]: 7.6% | S % [6]: 47.3%

CC1=C(/C=C/C(C)=C/C=C/C(C)=C/C(=O)Nc2ccc(O)cc2)C(C)(C)CCC1 [Fenretinide, reference compound]
OD Value (x ± s) ([1]; A549, MTT time gradient, in DMSO, 1 d, concentration not given): 0.883 ± 0.062 | Inhibition Rate ([1]; A549, MTT time gradient, in DMSO, 1 d, concentration not given, fraction): 0.037 | OD Value (x ± s) ([1]; A549, MTT time gradient, in DMSO, 2 d, concentration not given): 1.360 ± 0.052 | Inhibition Rate ([1]; A549, MTT time gradient, in DMSO, 2 d, concentration not given, fraction): 0.070 | OD Value (x ± s) ([1]; A549, MTT time gradient, in DMSO, 3 d, concentration not given): 0.845 ± 0.034 | Inhibition Rate ([1]; A549, MTT time gradient, in DMSO, 3 d, concentration not given, fraction): 0.089 | OD Value (x ± s) ([1]; A549, MTT time gradient, in DMSO, 7 d, concentration not given): 1.835 ± 0.030 | Inhibition Rate ([1]; A549, MTT time gradient, in DMSO, 7 d, concentration not given, fraction): 0.115 | OD Value (x ± s) ([1]; A549, MTT time gradient, in ethanol, 1 d, concentration not given): 0.887 ± 0.057 | Inhibition Rate ([1]; A549, MTT time gradient, in ethanol, 1 d, concentration not given, fraction): 0.033 | OD Value (x ± s) ([1]; A549, MTT time gradient, in ethanol, 2 d, concentration not given): 1.333 ± 0.046 | Inhibition Rate ([1]; A549, MTT time gradient, in ethanol, 2 d, concentration not given, fraction): 0.089 | OD Value (x ± s) ([1]; A549, MTT time gradient, in ethanol, 3 d, concentration not given): 0.836 ± 0.034 | Inhibition Rate ([1]; A549, MTT time gradient, in ethanol, 3 d, concentration not given, fraction): 0.099 | OD Value (x ± s) ([1]; A549, MTT time gradient, in ethanol, 7 d, concentration not given): 1.851 ± 0.030 | Inhibition Rate ([1]; A549, MTT time gradient, in ethanol, 7 d, concentration not given, fraction): 0.108 | OD Value (x ± s) ([1]; A549, MTT, 3 d, Table 1 control drug in DMSO, concentration not given): 1.724 ± 0.080 | Inhibition Rate ([1]; A549, MTT, 3 d, Table 1 control drug in DMSO, concentration not given, fraction): 0.076 | OD Value (x ± s) ([1]; A549, MTT, 3 d, Table 1 control drug in ethanol, concentration not given): 1.710 ± 0.056 | Inhibition Rate ([1]; A549, MTT, 3 d, Table 1 control drug in ethanol, concentration not given, fraction): 0.083 | Apoptosis Rate (%) ([2]; in DMSO): 29.3% | G0-G1 (%) ([2]; in DMSO): 47.2% | G2-M (%) ([2]; in DMSO): 2.09% | S % ([2]; in DMSO): 22.2% | Apoptosis Rate (%) ([2]; in ethanol): 14.0% | G0-G1 (%) ([2]; in ethanol): 59.3% | G2-M (%) ([2]; in ethanol): 2.63% | S % ([2]; in ethanol): 24.5% | CEA ([3]; DMSO): 4.5 µg/L | CEA ([3]; ethanol): 4.3 µg/L | G1 % [4]: 63.25% | G2 % [4]: 4.03% | S % [4]: 33.72% | Apoptosis Rate (%) ([5]; in DMSO): 5.71% | G0-G1 (%) ([5]; in DMSO): 67.3% | G2-M (%) ([5]; in DMSO): 7.64% | S % ([5]; in DMSO): 19.8% | Apoptosis Rate (%) ([5]; in ethanol): 10.6% | G0-G1 (%) ([5]; in ethanol): 60.0% | G2-M (%) ([5]; in ethanol): 5.69% | S % ([5]; in ethanol): 24.1% | G1 % [6]: 33.5% | G2 % [6]: 9.0% | S % [6]: 57.5%
